# US8546352B2, “Pharmacological preparation for topical use containing N-palmitoyl-vanillamide” (Epitech Group S.r.l., priority 2010, dated 2013)
# How the values were obtained:
# [1] = tested on: capsaicin-induced eye-wiping movements in mice; assay: Eye-wiping assay in mice, effect on capsaicin-induced wiping; format: in vivo, mouse; settings: for Capsaicin-induced wiping movements after Palvanil: same eye
# [2] = tested on: eye-wiping movements in mice; settings: mouse
# [3] = molecular target: T1, recombinant human TRPV1 (HEK-293 cells) (Homo sapiens, UniProt Q8NER1); assay: Desensitization of anandamide/low pH-induced TRPV1-mediated elevation of intracellular [Ca2+]; format: cell-based; settings: for IC50: read-out: IC50, desensitization of anandamide effect
# T1 construct: expressed in transfected cells
# T1 sequence (Q8NER1 whole entry): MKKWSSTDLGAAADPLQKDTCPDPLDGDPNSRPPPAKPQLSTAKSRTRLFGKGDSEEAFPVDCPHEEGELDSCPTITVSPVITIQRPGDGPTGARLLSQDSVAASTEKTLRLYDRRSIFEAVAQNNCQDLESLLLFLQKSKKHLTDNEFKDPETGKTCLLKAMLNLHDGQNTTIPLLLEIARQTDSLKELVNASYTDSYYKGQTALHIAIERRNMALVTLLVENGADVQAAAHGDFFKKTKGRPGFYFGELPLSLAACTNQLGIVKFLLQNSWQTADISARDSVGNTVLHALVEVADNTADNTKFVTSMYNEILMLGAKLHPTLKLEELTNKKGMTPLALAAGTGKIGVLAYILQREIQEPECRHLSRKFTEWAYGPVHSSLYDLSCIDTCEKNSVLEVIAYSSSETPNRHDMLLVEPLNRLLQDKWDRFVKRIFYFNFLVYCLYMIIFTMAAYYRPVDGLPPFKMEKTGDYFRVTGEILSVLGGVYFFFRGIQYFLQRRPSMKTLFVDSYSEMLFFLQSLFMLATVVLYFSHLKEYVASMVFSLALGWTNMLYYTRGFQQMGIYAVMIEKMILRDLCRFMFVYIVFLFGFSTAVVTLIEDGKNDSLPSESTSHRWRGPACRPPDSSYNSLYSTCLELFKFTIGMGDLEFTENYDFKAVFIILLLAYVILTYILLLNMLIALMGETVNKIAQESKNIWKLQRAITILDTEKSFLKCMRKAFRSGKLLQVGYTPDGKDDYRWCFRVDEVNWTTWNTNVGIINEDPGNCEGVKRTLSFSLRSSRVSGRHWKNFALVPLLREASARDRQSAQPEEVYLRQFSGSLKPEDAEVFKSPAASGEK
# [4] = molecular target: T1, recombinant human TRPV1 (HEK-293 cells); assay: TRPV1-mediated elevation of intracellular [Ca2+] (agonist activity); format: cell-based
# [5] = molecular target: T1, recombinant human TRPV1 (HEK-293 cells); assay: Desensitization of capsaicin (10 nM)-induced TRPV1-mediated elevation of intracellular [Ca2+]; format: cell-based
structure (smiles),measurement,setting,value
"C=C(C)[C@]12C[C@@H](C)[C@@]34O[C@](Cc5ccccc5)(O[C@@H]1[C@@H]3C=C(COC(=O)Cc1cc(I)c(O)c(OC)c1)C[C@]1(O)C(=O)C(C)=C[C@@H]41)O2 [I-RTX, 5′-iodo-resiniferatoxin, reference compound]",Effect of I-RTX pre-treatment on Palvanil's reduction of capsaicin-induced wiping,"[1]; mouse, in vivo",completely reverted
same,Eye-wiping reflexes per se,[2]; in vivo,did not cause any reflexes per se
"CCCCCCCCCCCCCCCC(=O)NCc1ccc(O)c(OC)c1 [Palvanil, N-(4-hydroxy-3-methoxybenzyl)palmitoylamide]",Capsaicin-induced wiping movements after Palvanil,"[1]; Palvanil 10 μg/ml, 1 hour before capsaicin 10 μg/ml",8.2±0.9 wiping movements
same,Capsaicin-induced wiping movements after Palvanil,"[1]; Palvanil 10 μg/ml, 3 hours before capsaicin 10 μg/ml",7.0±0.9 wiping movements
same,Capsaicin-induced wiping movements after Palvanil,"[1]; Palvanil 30 μg/ml, 1 hour before capsaicin 10 μg/ml",6.7±0.7 wiping movements
same,Capsaicin-induced wiping movements after Palvanil,"[1]; Palvanil 30 μg/ml, 3 hours before capsaicin 10 μg/ml",6.0±0.8 wiping movements
same,Inhibitory effect on anandamide response,"[3]; 1 nM compound, 0.5 μM AEA, at both pH values",> 50%
same,IC50,"[3]; 0.5 μM AEA, acid pH (6.5)",0.3 ± 0.01 nM
same,Fold more potent at the lower pH,"[3]; 0.5 μM AEA, pH 6.5 vs pH 7.4",90 fold
same,IC50,"[3]; 0.5 μM AEA, physiological pH (7.4)",0.9 ± 0.1 nM
same,IC50,"[3]; anandamide 0.25 mM (so in the source), acid pH",0.5 ± 0.02 nM
same,EC50,"[4]; HEK-293-TRPV1 cells, Fluo-4, read-out: EC50, increase in intracellular calcium",0.65 ± 0.04 nM
same,Pre-incubation time at which desensitizing effect reached a maximum,"[5]; 2 nM Palvanil, 10 nM capsaicin stimulation",~50 min
same,IC50,"[5]; read-out: IC50, desensitization of TRPV1 to the effect of capsaicin, 10 nM capsaicin, compound given 5 min before",0.81 ± 0.07 nM
"COc1cc(CNC(=O)CCCC/C=C/C(C)C)ccc1O [capsaicin, reference compound]",Speed of TRPV1 activation (time to achieve 90% of total TRPV1 mediated calcium influx),"[4]; different concentrations, greatest difference at 1 μM, capsaicin vs Palvanil",always significantly faster
same,Wiping movements monitored within 30 seconds,[2]; capsaicin solution 10 μg/ml into the eye,12±0.9 wiping movements
same,"Desensitizing effect at different pre-incubation times, compared with Palvanil","[5]; 10 nM capsaicin pre-incubation, 10 nM capsaicin stimulation",significantly less pronounced desensitizing effect
